Where “and” joins values, the source holds several entries; their conditions need not be identical. Equal values may be shown once. Toxic doses and inconclusive results are not listed. No stated cut-off is given here; in the data, active means T/C of 150% or more; inactive means T/C below 125%.
System: L1210 leukemia ip in BDF1 mice, survival T/C
Experiment: NCI In Vivo Anticancer Drug Screen. Data for tumor model L1210 Leukemia (intraperitoneal) in B6D2F1 (BDF1) mice
Conditions: endpoint: mean survival time, higher = longer survival
How it was run: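 Transplanted-tumor mice were given test agent; controls received vehicle only. Survival readings from the two groups were divided (treated over control).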

[1] = dose: 100.0 mg/kg/injection, schedule: Q04DX002 (ip), vehicle: Klucel (hydroxypropylcellulose) (HPC)
[2] = dose: 200.0 mg/kg/injection, schedule: Q04DX002 (ip), vehicle: Klucel (hydroxypropylcellulose) (HPC)
[3] = dose: 400.0 mg/kg/injection, schedule: Q04DX002 (ip), vehicle: Klucel (hydroxypropylcellulose) (HPC)
[4] = dose: 50.0 mg/kg/injection, schedule: Q04DX003 (ip), vehicle: Klucel (hydroxypropylcellulose) (HPC)
[5] = dose: 100.0 mg/kg/injection, schedule: Q04DX003 (ip), vehicle: Klucel (hydroxypropylcellulose) (HPC)
[6] = dose: 200.0 mg/kg/injection, schedule: Q04DX003 (ip), vehicle: Klucel (hydroxypropylcellulose) (HPC)
[7] = dose: 100.0 mg/kg/injection, schedule: Q01DX001 (ip), vehicle: saline
[8] = dose: 200.0 mg/kg/injection, schedule: Q01DX001 (ip), vehicle: saline
[9] = dose: 400.0 mg/kg/injection, schedule: Q01DX001 (ip), vehicle: saline
[10] = dose: 100.0 mg/kg/injection, schedule: Q01DX009 (ip), vehicle: Klucel (hydroxypropylcellulose) (HPC)
[11] = dose: 200.0 mg/kg/injection, schedule: Q01DX009 (ip), vehicle: Klucel (hydroxypropylcellulose) (HPC)
[12] = dose: 25.0 mg/kg/injection, schedule: Q01DX009 (ip), vehicle: Klucel (hydroxypropylcellulose) (HPC)

Measured: T/C

C1CCC(CC2CCNCC2)CC1
inactive: dose: 12.5 mg/kg/injection, schedule: Q04DX003 (ip), vehicle: saline with Tween-80 105 % of control | dose: 25.0 mg/kg/injection, schedule: Q04DX003 (ip), vehicle: saline with Tween-80 96 % of control | dose: 50.0 mg/kg/injection, schedule: Q04DX003 (ip), vehicle: saline with Tween-80 102 % of control

NCCc1cc2c3c(c1)CCCN3CCC2
inactive: dose: 0.78 mg/kg/injection, schedule: Q01DX009 (ip), vehicle: saline 95 % of control | dose: 1.56 mg/kg/injection, schedule: Q01DX009 (ip), vehicle: saline 102 % of control | dose: 3.12 mg/kg/injection, schedule: Q01DX009 (ip), vehicle: saline 91 % of control | dose: 6.25 mg/kg/injection, schedule: Q01DX009 (ip), vehicle: saline 97 % of control | dose: 12.5 mg/kg/injection, schedule: Q01DX001 (ip), vehicle: saline 100 % of control | dose: 25.0 mg/kg/injection, schedule: Q01DX001 (ip), vehicle: saline 94 % of control

CCOC(=O)C(=O)N(CC)CC
inactive: [1] 98 % of control | [2] 98 % of control | [3] 88 % of control

CCOC(=O)CNS(=O)(=O)CCN1C(=O)c2ccccc2C1=O
inactive: [4] 98 % of control | [5] 100 % of control | [6] 98 % of control

CCC1=C(C)CC2c3cc(OC)c(OC)cc3CCN2C1 (stereo not given)
inactive: dose: 4.0 mg/kg/injection, schedule: Q04DX003 (ip), vehicle: water 110 % of control | dose: 8.0 mg/kg/injection, schedule: Q04DX003 (ip), vehicle: water 103 % of control | dose: 16.0 mg/kg/injection, schedule: Q04DX003 (ip), vehicle: water 104 % of control | dose: 32.0 mg/kg/injection, schedule: Q04DX003 (ip), vehicle: water 108 % of control | dose: 64.0 mg/kg/injection, schedule: Q04DX003 (ip), vehicle: water 106 % of control | dose: 75.0 mg/kg/injection, schedule: Q01DX001 (ip), vehicle: saline 103 % of control | dose: 150.0 mg/kg/injection, schedule: Q01DX001 (ip), vehicle: saline 94 % of control | dose: 300.0 mg/kg/injection, schedule: Q01DX001 (ip), vehicle: saline 101 % of control

CCCCCCCCCCCCCCCCCCNC(=O)N(C)Cc1ccccc1
inactive: [1] 99 % of control | [2] 96 % of control | [3] 96 % of control

O=CN/N=C/c1cc(=O)[nH]c(=O)[nH]1
inactive: [7] 87 % of control | [8] 87 % of control | [9] 93 % of control

SCc1ccccc1
inactive: [7] 91 % of control | [8] 111 % of control | [9] 105 % of control

O=C(Nc1cccc(CO)c1)c1ccc(S(=O)(=O)F)cc1
inactive: dose: 100.0 mg/kg/injection, schedule: Q01DX001 (ip), vehicle: Klucel (hydroxypropylcellulose) (HPC) 99 % of control | dose: 200.0 mg/kg/injection, schedule: Q01DX001 (ip), vehicle: Klucel (hydroxypropylcellulose) (HPC) 89 % of control | dose: 400.0 mg/kg/injection, schedule: Q01DX001 (ip), vehicle: Klucel (hydroxypropylcellulose) (HPC) 94 % of control

c1ccc([C](c2ccccc2)(c2ccccc2)[Ge]([c]2ccccc2)([c]2ccccc2)[c]2ccccc2)cc1
inactive: dose: 12.8 mg/kg/injection, schedule: Q04DX002 (ip), vehicle: saline with Tween-80 93 % of control | dose: 32.0 mg/kg/injection, schedule: Q04DX002 (ip), vehicle: saline with Tween-80 96 % of control | dose: 80.0 mg/kg/injection, schedule: Q04DX002 (ip), vehicle: saline with Tween-80 89 % of control | dose: 200.0 mg/kg/injection, schedule: Q04DX002 (ip), vehicle: saline with Tween-80 89 % of control

Cc1[nH]c2cc(O)c(O)c(C)c2c1C
inactive: [7] 96 % of control

Cc1cccc(NC(=O)NCCCl)c1
inactive: dose: 100.0 mg/kg/injection, schedule: Q01DX001 (ip), vehicle: other 97 % of control | [10] 95 % of control | [1] 102 % of control | dose: 200.0 mg/kg/injection, schedule: Q01DX001 (ip), vehicle: other 105 % of control | [11] 92 % of control | [2] 113 % of control | dose: 400.0 mg/kg/injection, schedule: Q01DX001 (ip), vehicle: other 97 % of control | dose: 400.0 mg/kg/injection, schedule: Q01DX009 (ip), vehicle: Klucel (hydroxypropylcellulose) (HPC) 92 % of control | [3] 102 % of control

CCCc1nc(N)[nH]c(=O)c1CCCCc1ccccc1
inactive: dose: 100.0 mg/kg/injection, schedule: Q04DX003 (ip), vehicle: saline 96 % of control | dose: 200.0 mg/kg/injection, schedule: Q04DX003 (ip), vehicle: saline 110 % of control | dose: 400.0 mg/kg/injection, schedule: Q04DX003 (ip), vehicle: saline 100 % of control

Nc1nnc(N)c2ccccc12
inactive: dose: 100.0 mg/kg/injection, schedule: Q04DX002 (ip), vehicle: saline 100 % of control | dose: 200.0 mg/kg/injection, schedule: Q04DX002 (ip), vehicle: saline 96 % of control | dose: 400.0 mg/kg/injection, schedule: Q04DX002 (ip), vehicle: saline 102 % of control

CC(C)(/C=N/N=C(N)N)CCC#N
inactive: dose: 60.0 mg/kg/injection, schedule: Q01DX Z (oral), vehicle: saline 98 % of control | dose: 120.0 mg/kg/injection, schedule: Q01DX Z (oral), vehicle: saline 109 % of control | dose: 240.0 mg/kg/injection, schedule: Q01DX Z (oral), vehicle: saline 103 % of control | dose: 480.0 mg/kg/injection, schedule: Q01DX Z (oral), vehicle: saline 94 % of control and 116 % of control

COc1ccc(NC(=O)c2c(Br)c(Br)c(Br)c(Br)c2C(=O)O)c(Cl)c1
inactive: [10] 96 % of control | [11] 93 % of control

CC(C)(C)CC(C)(C)c1ccc(OCCOc2ccc(C(=O)O)cc2N)cc1
inactive: [7] 92 % of control | [8] 96 % of control

Cc1ccc(Nc2cc(=O)[nH]c(N)n2)cc1C
inactive: dose: 100.0 mg/kg/injection, schedule: Q01DX Z (ip), vehicle: methylcellulose (MC) 95 % of control | dose: 200.0 mg/kg/injection, schedule: Q01DX Z (ip), vehicle: methylcellulose (MC) 95 % of control

CCCCOB(OCCCC)c1cccc(B(OCCCC)OCCCC)c1
inactive: [7] 89 % of control | [8] 101 % of control | [9] 117 % of control

C/C(=C\c1ccc2c(c1)OCO2)[N+](=O)[O-]
inactive: [12] 97 % of control | dose: 50.0 mg/kg/injection, schedule: Q01DX009 (ip), vehicle: Klucel (hydroxypropylcellulose) (HPC) 89 % of control | dose: 50.0 mg/kg/injection, schedule: Q01DX009 (ip), vehicle: saline with Tween-80 108 % of control | [4] 94 % of control | [10] 98 % of control and 87 % of control | dose: 100.0 mg/kg/injection, schedule: Q01DX009 (ip), vehicle: saline with Tween-80 87 % of control | [5] 103 % of control | [6] 100 % of control | dose: 400.0 mg/kg/injection, schedule: Q04DX003 (ip), vehicle: Klucel (hydroxypropylcellulose) (HPC) 97 % of control

C=Cc1nc2ccccc2[nH]1 (tested in a mixture with another compound)
inactive: dose: 5.0 mg/kg/injection, schedule: Q01DX001 (ip), vehicle: saline 95 % of control | dose: 10.0 mg/kg/injection, schedule: Q01DX001 (ip), vehicle: saline 96 % of control | dose: 20.0 mg/kg/injection, schedule: Q01DX001 (ip), vehicle: saline 96 % of control | dose: 80.0 mg/kg/injection, schedule: Q01DX001 (ip), vehicle: saline 102 % of control

OCc1ccccc1CO
inactive: dose: 100.0 mg/kg/injection, schedule: Q01DX001 (ip), vehicle: carboxymethylcellulose (CMC) 95 % of control | dose: 200.0 mg/kg/injection, schedule: Q01DX001 (ip), vehicle: carboxymethylcellulose (CMC) 95 % of control | dose: 400.0 mg/kg/injection, schedule: Q01DX001 (ip), vehicle: carboxymethylcellulose (CMC) 98 % of control

CCCCCC(CN(C)C)C(=O)/C=C/c1c(Cl)cccc1Cl (stereo not given)
inactive: [12] 106 % of control
